Experimental data published in PubChem BioAssay (NCI).
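Test compounds were applied to cells in 96-well plates for 48 hours at 5 doses. TGI is the concentration that stops growth completely.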

Legend:
Assay in all cases: DTP human tumour cell line panel, 48 h
OVCAR-5 ovarian = system: OVCAR-5 ovarian
OVCAR-8 ovarian = system: OVCAR-8 ovarian
UACC-62 melanoma = system: UACC-62 melanoma
OVCAR-4 ovarian = system: OVCAR-4 ovarian
NCI/ADR-RES ovarian = system: NCI/ADR-RES ovarian
KM12 colon = system: KM12 colon
NCI-H226 lung = system: NCI-H226 lung
BT-549 breast = system: BT-549 breast
MCF7 breast = system: MCF7 breast

Compound	TGI (OVCAR-5 ovarian)	TGI (OVCAR-8 ovarian)	TGI (UACC-62 melanoma)	TGI (OVCAR-4 ovarian)	TGI (NCI/ADR-RES ovarian)	TGI (KM12 colon)	TGI (NCI-H226 lung)	TGI (BT-549 breast)	TGI (MCF7 breast)
COc1ccccc1NS(=O)(=O)c1ccc2ncn(NS(=O)(=O)c3ccc(Cl)cc3)c(=O)c2c1	> 100 µM	> 100 µM	> 100 µM	> 100 µM	> 100 µM	> 100 µM	> 100 µM	> 100 µM	> 100 µM
Cc1cc(C)c(N=Nc2c(O)c(S(=O)(=O)O)cc3cc(S(=O)(=O)O)ccc23)cc1C	> 100 µM	> 100 µM	> 100 µM	> 100 µM	> 100 µM	> 100 µM	> 100 µM	> 100 µM	–
O=C(NN=C1CCCCC1)NN=C1CCCCC1	> 100 µM	> 100 µM	> 100 µM	> 100 µM	> 100 µM	> 100 µM	–	> 100 µM	> 100 µM
Cc1sc2nc3n(c(=O)c2c1C)N=C(c1ccc([N+](=O)[O-])cc1)CS3	> 100 µM	> 100 µM	> 100 µM	–	> 100 µM	> 100 µM	> 100 µM	> 100 µM	> 100 µM
COc1cc2c(c(OC)c1OC)-c1ccc(SC)cc1C(=O)CC2	> 100 µM	> 100 µM	> 100 µM	> 100 µM	–	–	–	> 100 µM	> 100 µM
CC1(C)c2ccccc2C(O)C12CCC(=O)CC2 (centres undefined)	> 100 µM	–	> 100 µM	> 100 µM	> 100 µM	> 100 µM	> 100 µM	–	–
CN1B(c2ccccc2)N(C)C(=O)N(C)C1=O	> 100 µM	> 100 µM	> 100 µM	–	> 100 µM	> 100 µM	> 100 µM	> 100 µM	> 100 µM
C=CCC(SC)C1=C(C)C(=O)c2ccccc21 (centres undefined)	> 10 µM	> 10 µM	> 10 µM	–	–	> 10 µM	> 10 µM	> 10 µM	> 10 µM
Brc1cccc[n+]1-c1ccc2cc(-[n+]3ccccc3Br)ccc2c1	> 100 µM	> 100 µM	> 100 µM	–	> 100 µM	40 µM	> 100 µM	> 100 µM	> 100 µM
CC1CC[C@@]2(OC1)OC1C[C@H]3[C@@H]4CCC5CC(O)CC[C@]5(C)[C@H]4C/C(=N\N(C)C)[C@]3(C)C1[C@@H]2C (some centres undefined)	62.2 µM	–	> 100 µM	> 100 µM	41.4 µM	85.2 µM	> 100 µM	83.5 µM	> 100 µM
Cc1cccc(NC2=NCCO2)c1Cl	> 100 µM	> 100 µM	> 100 µM	> 100 µM	> 100 µM	> 100 µM	> 100 µM	–	> 100 µM
CCCC1(N)CC(OC)OC(C)C1O (centres undefined)	> 100 µM	> 100 µM	> 100 µM	–	> 100 µM	> 100 µM	> 100 µM	> 100 µM	> 100 µM
CCOC(=O)CC[C@H](N)C(=O)N[C@H](Cc1ccc(N(CCCl)CCCl)cc1)C(=O)OCC	14.7 µM	–	–	11.2 µM	11.3 µM	15.9 µM	> 47.7 µM	> 38 µM	> 47.5 µM
